| melting point [°C] | SMILES |
| --- | --- |
| 77 to 78 | O=S(=O)(c1ccc(N2CCNCC2)cc1)n1ccc2cc(F)ccc21 [Compound 1, 5-Fluoro-1-(4-piperazin-1-yl-benzenesulfonyl)-1H-indole] |
| 246 to 248.5 | O=S(=O)(c1ccc(N2CCNCC2)cc1)c1cc2ccccc2[nH]1 [Compound 39, 2-(4-Piperazin-1-yl-benzenesulfonyl)-1H-indole] |

Source: patent US7022708B2, “4-piperazinyl benzenesulfonyl indoles and uses thereof” (Roche Palo Alto LLC, priority 2002, dated 2006)
